The supplement of paper PMC10307832

Key:
Experiment in all cases: relative viability (nuclei count vs DMSO), 5 days (fraction); higher = more cells survive
Doramapimod + Tozasertib = compound: Cc1ccc(-n2nc(C(C)(C)C)cc2NC(=O)Nc2ccc(OCCN3CCOCC3)c3ccccc23)cc1 [Doramapimod] + Cc1cc(Nc2cc(N3CCN(C)CC3)nc(Sc3ccc(NC(=O)C4CC4)cc3)n2)n[nH]1 [Tozasertib] (partner 0.1 µM)
Outline: (§1)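 The day after seeding in 1536-well plates, lung cancer cell lines were treated by pin tool with a single drug, or with a fixed anchor-drug dose together with five library-drug doses (not always all listed) in √10 steps. After 5 days, a combined fix-and-stain solution (final 0.05% Triton X-100, 1% formaldehyde, 1 ug/ml Hoechst) was added. Nuclei counted on 4× images gave relative viability as treated counts over vehicle counts, reported as the median of duplicate plates.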

RAF265 + AZD7762 = compound: Cn1c(Nc2ccc(C(F)(F)F)cc2)nc2cc(Oc3ccnc(-c4ncc(C(F)(F)F)[nH]4)c3)ccc21 [RAF265] + NC(=O)Nc1cc(-c2cccc(F)c2)sc1C(=O)N[C@H]1CCCNC1 [AZD7762] (partner 0.2 µM)
Outline: as §1

Doramapimod + Luminespib = compound: Cc1ccc(-n2nc(C(C)(C)C)cc2NC(=O)Nc2ccc(OCCN3CCOCC3)c3ccccc23)cc1 [Doramapimod] + CCNC(=O)c1noc(-c2cc(C(C)C)c(O)cc2O)c1-c1ccc(CN2CCOCC2)cc1 [Luminespib] (partner 0.01 µM)
Outline: as §1

IPA-3 + Tozasertib = compound: C1=CC=C2C(=C1)C=CC(=C2SSC3=C(C=CC4=CC=CC=C43)O)O [IPA-3] + Cc1cc(Nc2cc(N3CCN(C)CC3)nc(Sc3ccc(NC(=O)C4CC4)cc3)n2)n[nH]1 [Tozasertib] (partner 0.1 µM)
Outline: as §1

Row | Cell Line | relative viability (Doramapimod + Tozasertib; first compound 0.02 µM) | relative viability (Doramapimod + Tozasertib; first compound 0.06325 µM) | relative viability (Doramapimod + Tozasertib; first compound 0.2 µM) | relative viability (Doramapimod + Tozasertib; first compound 0.6325 µM) | relative viability (Doramapimod + Tozasertib; first compound 2 µM) | relative viability (RAF265 + AZD7762; first compound 0.01 µM) | relative viability (RAF265 + AZD7762; first compound 0.03162 µM) | relative viability (RAF265 + AZD7762; first compound 0.1 µM) | relative viability (RAF265 + AZD7762; first compound 0.3162 µM) | relative viability (RAF265 + AZD7762; first compound 1 µM) | relative viability (Doramapimod + Luminespib; first compound 0.02 µM) | relative viability (Doramapimod + Luminespib; first compound 0.06325 µM) | relative viability (Doramapimod + Luminespib; first compound 0.2 µM) | relative viability (Doramapimod + Luminespib; first compound 0.6325 µM) | relative viability (Doramapimod + Luminespib; first compound 2 µM) | relative viability (IPA-3 + Tozasertib; first compound 0.2 µM) | relative viability (IPA-3 + Tozasertib; first compound 0.6325 µM) | relative viability (IPA-3 + Tozasertib; first compound 2 µM) | relative viability (IPA-3 + Tozasertib; first compound 6.325 µM) | relative viability (IPA-3 + Tozasertib; first compound 20 µM)
1 | NCI-H460 | 0.455 | 0.517 | 0.49 | 0.673 | 0.372 | 0.586 | 0.666 | 0.775 | 0.598 | 0.38 | 0.032 | 0.0205 | 0.0311 | 0.0341 | 0.0277 | 0.464 | 0.462 | 0.727 | 0.516 | 0.453
2 | NCI-H1755 | 0.581 | 0.58 | 0.597 | 0.611 | 0.469 | 0.548 | 0.475 | 0.483 | 0.405 | 0.425 | 0.354 | 0.426 | 0.411 | 0.431 | 0.22 | 0.586 | 0.568 | 0.552 | 0.561 | 0.504
3 | NCI-H358 | 0.0934 | 0.0925 | 0.101 | 0.105 | 0.109 | 0.46 | 0.515 | 0.491 | 0.279 | 0.184 | 0.276 | 0.424 | 0.516 | 0.38 | 0.208 | 0.107 | 0.0935 | 0.11 | 0.0943 | 0.119
4 | NCI-H1734 | 0.273 | 0.267 | 0.229 | 0.284 | 0.235 | 0.545 | 0.516 | 0.437 | 0.325 | 0.217 | 0.227 | 0.259 | 0.214 | 0.17 | 0.18 | 0.275 | 0.269 | 0.251 | 0.306 | 0.23
5 | EPLC-272H | 0.319 | 0.275 | 0.441 | 0.29 | 0.246 | 0.213 | 0.181 | 0.223 | 0.161 | 0.15 | 0.368 | 0.296 | 0.741 | 0.494 | 0.187 | 0.441 | 0.338 | 0.332 | 0.311 | 0.506
6 | NCI-H2126 | 0.843 | 0.835 | 0.812 | 0.926 | 0.777 | 1.04 | 0.962 | 0.968 | 0.935 | 0.848 | 0.832 | 0.906 | 0.964 | 1.03 | 0.702 | 0.922 | 0.78 | 0.875 | 0.842 | 0.872
